Source: ChEMBL document CHEMBL4665786, “Cellular Target Proteome in Breast Cancer Cells of an Oplopane Sesquiterpenoid Isolated from Tussilago farfara” (J Nat Prod, 2020)

Tests used:
MDA-MB-231 = assay: Antiproliferative activity against human MDA-MB-231 cells by MTT assay; format: functional, cell-based
MCF7 = assay: Antiproliferative activity against human MCF7 cells by MTT assay; format: functional, cell-based

Row | IC50 (MDA-MB-231) [µM] | IC50 (MCF7) [µM] | SMILES
1 | > 10 | > 10 | C=C(C1[C@H](OC(C)=O)C(=O)[C@@]2(C)O[C@H]2[C@@H]1OC(C)=O)[C@H](CC=C(C)C)OC(=O)/C(C)=C\C (stereo partly specified)
2 | > 10 | > 10 | C=C(C1C[C@@H]2O[C@]2(C)C(=O)[C@H]1OC(C)=O)[C@H](CC=C(C)C)OC(=O)/C(C)=C\C (stereo partly specified)
3 | > 10 | > 10 | C=C1[C@H](OC(=O)/C=C(\C)CC)C[C@@H](C(C)C)[C@@H]2/C(=C\C)C(=O)C[C@@H]12
4 | > 10 | > 10 | C=C1[C@H](OC(=O)/C=C(\C)CC)C[C@@H](C(C)C)[C@@H]2/C(=C/C)C(=O)C[C@@H]12

The remaining lines, values behind:

Row | SMILES | IC50 (MDA-MB-231) [µM] | IC50 (MCF7) [µM]
5 | C=C(C1C[C@@H]2O[C@]2(C)C(=O)[C@H]1OC(=O)/C(C)=C\C)[C@H](CC=C(C)C)OC(=O)/C(C)=C\C (stereo partly specified) | > 10 | > 10
6 | C=C1[C@H]2[C@@H](C(C(C)OC)C(=O)[C@H]2OC(=O)C(C)CC)[C@H](C(C)C)C[C@H]1OC(=O)/C=C(\C)CC (stereo partly specified) | > 90 | –
7 | C=C1[C@@H]2C(O)C(=O)/C(=C\C)[C@H]2[C@H](C(C)C)C[C@H]1OC(=O)/C=C(\C)CC (stereo partly specified) | 11.3 | –
8 | C/C=C1\C(=O)[C@@H](OC(=O)C(C)CC)[C@@H]2[C@@H]1[C@H](C(C)C)C[C@@H](OC(=O)/C=C(\C)CC)C21CO1 (stereo partly specified) | 8.6 | 17.6
9 | C=C1[C@H]2[C@@H]([C@@H]([C@H](C)OC(C)=O)C(=O)[C@H]2OC(=O)C(C)CC)[C@H](C(C)C)C[C@H]1OC(=O)/C=C(\C)CC (stereo partly specified) | 7.3 | 12.8
10 | C/C=C1\C(=O)[C@@H](OC(=O)C(C)CC)[C@@H]2[C@@H]1[C@H](C(C)C)C[C@@H](OC(=O)/C=C(\C)CC)C2(O)CN=[N+]=[N-] (stereo partly specified) | 5.5 | 14.1
11 | C=C1[C@@H]2C(O)C(=O)C(C(C)OC)[C@H]2[C@H](C(C)C)C[C@H]1OC(=O)/C=C(\C)CC (stereo partly specified) | > 90 | –
12 | C=C1[C@H](OC(=O)/C=C(\C)CC)C[C@@H](C(C)C)[C@@H]2[C@@H]([C@H](C)OC(C)=O)C(=O)C[C@@H]12 | > 10 | > 10
